{"source": "patent US5134150A", "about": "“Inhibition of the 5-lipoxygenase pathway” (priority 1989, dated 1992)", "key": {"[1]": {"tested_on": "Arachidonic Acid-Induced Inflammation of the Mouse Ear", "assay": "Arachidonic acid-induced mouse ear inflammation", "format": "in vivo, mouse (male Balb/c)", "details": "for Mouse ear edema, result in words: in vivo", "text": "In the following Examples where mice were used, they were male Balb/c mice (20-28 g), and where rats were used, they were male Lewis rats (180-210 g). All mice and rats were obtained from Charles River Breeding Laboratories, Kingston, N.Y. Within a single experiment, mice and rats were sex and age matched.\nThe compounds of Formula (I) were used either as the free base or in the appropriate salt form. Levamisole was used as the hydrochloride salt. The compounds were homogenized in 0.5% tragacanth. Compounds were administered by gavage at the indicated dose in a final volume of 10 ml/kg. Nordihydroguaiaretic acid (NDGA) was solubilized in dimethylacetamide and diluted with olive oil for subcutaneous administration.\nArachidonic acid in acetone ([…]) was applied to the inner surface of the left ear. The thickness of both ears was then measured with a dial micrometer one hour after treatment, and the data were expressed as the change in thickness (10^-3 cm) between treated and untreated ears.\nTest compounds were given orally in 0.5% tragacanth at the times indicated in the text prior to the topical application of arachidonic acid.\nParenteral administration of compound was accomplished by subcutaneous injection of solution as indicated."}, "[2]": {"tested_on": "Experimental Allergic Encephalomyelitis Induced in Female Lewis Rats", "assay": "Experimental allergic encephalomyelitis, hindleg paralysis", "format": "in vivo, rat (female Lewis)", "details": "for Inhibition of EAE, result in words: rat, in vivo", "experimental": "EAE is induced in Female (Charles River) Lewis rats by a single intradermal injection of 0.1 ml of an encephalitogenic emulsion consisting of equial parts of a 50% w/v homogenate of guinea pig spinal cord and mid-brain in 0.5% aqueous phenol and Freund's complete adjuvant (4 mg/ml killed, dried M. butyricum) into a hindpaw (left) footpad. […] Any animal which becomes paralyzed during the course of the experiment is considered to have developed EAE whether or not the paralysis is permanent. Test compounds are administered daily beginning on the day of injection, for 19 days, exclusive of days 5, 6 12 and 13. Drug activity is determined by comparing the indicidence of EAE (paralysis) of the treated group with a control (vehicle) group. The level of significant difference between the treated groups and control groups is determined by a Chi-square test using a 2×2 contingency table. Body weight changes from day 0 are also statistically compared to the control group using a Student \"t\" test."}, "[3]": {"tested_on": "LTC4 production by human monocytes", "assay": "LTC4 production by human monocytes", "format": "cell-based", "details": "Monocyte; A23187-stimulated human monocytes", "experimental": "The compounds of Formula (I) were evaluated for their ability to inhibit the production of LTC4 by human monocytes according to the following assay. Human monocytes were prepared from whole blood supplied by the American Red Cross. The blood was fractinated by a two-step procedure employing sedimentation on Ficoll followed by sedimentation on Percoll. […] Non-adherent cells were removed by washing. […] When drugs were evaluated, they were added to the cells 30 minutes prior to the A23187. Supernatants were collected, […] by centrifugation and stored frozed at -20° C. until assay. The LTC4 content was determined by using a New England Nuclear Leukotriene C-4 (^3 H) RIA Kit as per instructions."}, "5-Lipoxygenase": {"biological_target": "T1, 5-Lipoxygenase (Rattus norvegicus, UniProt P12527)", "T1 construct": "The activities of these enzymes in extracts of RBL-1 cells were assayed; host or cells: RBL-1", "T1 sequence (P12527 1-673)": "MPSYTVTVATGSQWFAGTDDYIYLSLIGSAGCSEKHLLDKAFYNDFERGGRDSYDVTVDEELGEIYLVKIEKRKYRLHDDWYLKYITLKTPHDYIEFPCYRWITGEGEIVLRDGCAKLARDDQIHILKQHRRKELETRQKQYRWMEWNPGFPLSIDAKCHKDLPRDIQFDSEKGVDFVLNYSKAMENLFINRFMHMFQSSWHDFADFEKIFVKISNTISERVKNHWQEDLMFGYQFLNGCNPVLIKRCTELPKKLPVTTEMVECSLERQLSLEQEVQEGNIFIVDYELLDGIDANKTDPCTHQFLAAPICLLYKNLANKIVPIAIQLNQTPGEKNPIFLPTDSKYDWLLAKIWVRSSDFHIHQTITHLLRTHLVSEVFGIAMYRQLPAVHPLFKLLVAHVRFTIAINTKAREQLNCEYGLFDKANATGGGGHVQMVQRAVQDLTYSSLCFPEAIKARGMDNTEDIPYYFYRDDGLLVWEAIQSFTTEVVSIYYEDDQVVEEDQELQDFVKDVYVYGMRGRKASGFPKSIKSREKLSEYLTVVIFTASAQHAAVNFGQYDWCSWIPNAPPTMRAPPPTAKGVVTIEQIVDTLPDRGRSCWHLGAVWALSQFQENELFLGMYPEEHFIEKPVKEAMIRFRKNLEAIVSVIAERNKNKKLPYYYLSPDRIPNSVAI", "assay": "5-Lipoxygenase activity (5-HETE) in RBL-1 cell extracts, 10,000 x g supernatant", "format": "biochemical", "details": "Table 8", "description": "For in vitro experiments, compounds were dissolved at appropriate concentrations in ethanol or DMSO (dimethylsulfoxide) (final concentration≤1.0%) and then diluted to final concentrations using the buffers indicated in the text.\nRBL-1 cells were obtained from the American Type Culture Collection (#CRL 1378) and were grown at 37° C. (5% CO2 in air) in spinner culture in MEM supplemented with 10% heat inactivated fetal calf serum. Harvested cells were washed with 50 mM sodium phosphate buffer, pH 7.0, containing 1 mM EDTA and 0.1% gelatin, resuspended in fresh buffer (5×10^7 cells/ml) and disrupted by nitrogen cavitation using the Parr bomb at 750 psi for 10 min. The broken cell extract was then centrifuged at 10,000× g for 20 minutes (min) and the supernatant centrifuged at 100,000 xIg for 60 min. Aliquots (0.25 mls) of the supernatant were preincubated with or without drugs for 10 min, after which 10 μl CaCl2 (50 mM) was added and the reaction was initiated with 2.5 μl of 2.5 mM arachidonic acid-1-^14 C (final concentration was 25 μM; specific activity 20,000 dpm/nmole). After incubation for 3 min at 37° C., the reaction was terminated by addition of 2 volumes (0.5 ml) ice cold acetone and the sample was allowed to deproteinize on ice for 10 min prior to centrifugation at 1,000× g for 10 min. […] Arachidonic acid, 5-HETE, LTB4 and PGD2 were quantified with a Berthold LB 2832 autoscanner."}}, "data": [{"smiles": "Fc1ccc(-c2nc3n(c2-c2ccncc2)CCS3)cc1", "note": "[Compound 1]", "values": [{"measurement": "Increase in Ear Thickness at 1 Hour", "setting": "[1]; 50 mg/kg, p.o.", "value": "10.0 ± 1.5 × 10-3 cm"}, {"measurement": "Mouse ear edema, result in words", "setting": "[1]", "value": "marked inhibition of the edematous response"}, {"measurement": "Hindleg paralysis - cumulative incidence, day 14 to 18", "setting": "[2]; 60 mg/kg/day, p.o.", "value": "0/11"}, {"measurement": "Inhibition of EAE, result in words", "setting": "[2]", "value": "efficacious"}, {"measurement": "IC50", "setting": "[3]", "value": 1800, "unit": "nM"}]}, {"smiles": "COc1ccc2c(c1)c(CC(=O)O)c(C)n2C(=O)c1ccc(Cl)cc1", "note": "[Indomethacin]", "values": [{"measurement": "% Change (ear thickness)", "setting": "[1]; 10 mg/kg, p.o.", "value": -5, "unit": "%"}, {"measurement": "Increase in Ear Thickness at 1 Hour", "setting": "[1]; 10 mg/kg, p.o.", "value": "24.4 ± 0.8 × 10-3 cm"}, {"measurement": "Mouse ear edema, result in words", "setting": "[1]", "value": "did not exhibit detectable anti-inflammatory activity"}, {"measurement": "IC50 5-Lipoxygenase", "setting": "5-Lipoxygenase", "value": "Inactive @ 30"}, {"measurement": "Inhibition of EAE, result in words", "setting": "[2]", "value": "not indomethacin"}]}]}
